# Data reported in patent US20160289702A1, “Biosynthetic Mint” (The University of Manchester, priority 2015, published 2016).
# What was measured:
# NtDBR-His6 = molecular target: T1, NtDBR-His6 (Nicotiana tabacum, UniProt Q9SLN8); test: Steady-state kinetics, ene-reductase activity by NADPH oxidation monitoring; type: biochemical; conditions: NADPH oxidation at 340 nm, 25° C., monoterpenoid 1 mM, 50 mM Tris pH 7.0
# T1 construct: made in house; host or cells: E. coli BL21(DE3)pLysS
# Protocol: (§1) The concentration of nicotinamide coenzymes (Melford) was determined by the extinction coefficient method (ε340=[…]). Steady-state kinetic analyses were performed on a Cary UV-50 Bio UV/Vis scanning spectrophotometer using a quartz cuvette (1 mL; HelIma) with a 1 cm path length. Standard reactions (1 mL) were performed in buffer (50 mM Tris pH 7.0) containing NADPH (50-100 μM for MMR/MNMR and NtDBR, respectively), monoterpenoid (1 mM) and enzyme (30 nM to 2 μM). Reactions were followed by continuously monitoring NADPH oxidation at 340 nm for 1 min at 25° C. The standard monoterpenoid substrates used were pulegone for NtDBR (alkene reduction) and menthone/isomenthone for both MMR and MNMR (ketoreduction). Ketoreductase reactions were performed in an alternative buffer (12.5 mM tri-sodium citrate, 12.5 mM KH2PO4, 12.5 mM K2HPO4and 12.5 mM CHES) containing dithiothreitol (1 mM; DTT). All steady state reactions were performed in at least duplicate.
# The cloning strategies enable the rapid generation and manipulation of multi-gene expression constructs from individual ‘components’, including the presence of repeated sequences of relatively high GC content. Initially, the three ‘mint’ pathway recombinant enzymes (NtDBR, MMR and MNMR) were purified, and preliminary biocatalytic ability of each was assessed to test their functionality when produced in a bacterial system. […]
# MMR-His6 = test: Steady-state kinetics, ketoreductase activity by NADPH oxidation monitoring; type: biochemical, Mentha piperita; conditions: NADPH oxidation at 340 nm, 25° C., monoterpenoid 1 mM
# Protocol: as §1
# (§2) The cloning strategies enable the rapid generation and manipulation of multi-gene expression constructs from individual ‘components’, including the presence of repeated sequences of relatively high GC content. Initially, the three ‘mint’ pathway recombinant enzymes (NtDBR, MMR and MNMR) were purified, and preliminary biocatalytic ability of each was assessed to test their functionality when produced in a bacterial system. The three genes encoding these plant enzymes were first codon-optimised for E. coli and cloned into pET21b to generate C-His6-tagged recombinant enzymes. After production and purification, each enzyme was tested for activity under steady state conditions, via indirect NADPH oxidation monitoring.
# His6-MNMR-His6 = test: as above; type: biochemical, Mentha piperita; conditions: NADPH oxidation at 340 nm, 25° C., monoterpenoid 1 mM
# Protocol: as §1, §2
# MMR = conditions: Davis et al. 2005; cited from earlier work
# T1 sequence (Q9SLN8 whole entry): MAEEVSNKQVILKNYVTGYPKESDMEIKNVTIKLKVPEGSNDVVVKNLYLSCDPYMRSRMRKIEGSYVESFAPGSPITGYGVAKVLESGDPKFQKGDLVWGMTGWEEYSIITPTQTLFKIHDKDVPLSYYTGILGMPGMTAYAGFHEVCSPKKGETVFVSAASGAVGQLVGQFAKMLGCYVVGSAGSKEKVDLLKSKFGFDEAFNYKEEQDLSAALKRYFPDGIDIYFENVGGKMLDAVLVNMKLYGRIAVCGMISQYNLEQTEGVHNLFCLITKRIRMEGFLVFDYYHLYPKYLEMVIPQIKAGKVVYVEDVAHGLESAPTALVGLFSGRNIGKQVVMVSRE
Ketoreductase activity (MMR-His6) [s⁻¹],Ketoreductase activity (His6-MNMR-His6) [s⁻¹],Compound,ene-reductase activity (NtDBR-His6) [s⁻¹],specificity for menthone over isomenthone (MMR) [fold]
–,–,CC(C)=C1CC[C@@H](C)CC1=O [(5R)-pulegone],< 0.1,–
2.00,0.20,"CC(C)[C@H]1CC[C@@H](C)CC1=O [(2R,5R)-isomenthone]",–,–
1.63,0.96,"CC(C)[C@@H]1CC[C@@H](C)CC1=O [(2S,5R)-menthone, (2S,5R)-trans-2-Isopropyl-5-methylcyclohexanone]",–,10
